Data published in EP2114888B1, “TRICYCLIC COMPOUNDS AND THEIR USE AS GLUCOCORTICOID RECEPTOR MODULATORS” (priority 2007, dated 2008).

Columns and labels:
[1] = test system: Mouse Collagen-induced arthritis (mCIA); assay: Traditional mouse collagen-induced arthritis (mCIA) model; type: in vivo, male DBA/J mice; conditions: mice
Experimental: Mouse Collagen-induced arthritis is a commonly used chronic, preclinical model of rheumatoid arthritis in which joint swelling and bone destruction occur following immunization with type II collagen. Reduction of disease incidence and severity has been shown previously to be predictive of disease-modification and signs and symptoms mitigation, respectively, in a clinical setting.
In the traditional mCIA model, male DBA/J mice were immunized with 50 µg chick type II collagen (cCII) in complete Freund's adjuvant and then boosted 21 days later with 50 µg cCII in incomplete Freund's adjuvant. Treatment with compounds was initiated on the morning of the boost and continued for 56 days. The effectiveness of treatment was measured by disease incidence (i.e., number of mice showing any sign of disease) and disease severity, both of which were measured twice a week.

[2] = mouse, in vivo
From the text: Due to blood volume sampling limitations in mice, AUC(0-4 hr) values were used to make pharmacodynamic comparisons.

[3] = Oral absorption profile, time to Cmax in dogs; conditions: dog, in vivo
IL-1β = assay: Ex vivo LPS-stimulated human whole blood, IL-1β production; type: cell-based; conditions: one donor
Experimental: (§1) Venous blood from human donors was collected as 10 ml aliquots in tubes containing sodium heparin (BD Vacutainer from Becton Dickinson and Company, Franklin Lakes, NY). Blood was added to sterile polystyrene round bottom 96-well tissue culture plates (Corning Costar) at 100 µl/well, omitting the outside wells. Media (RPMI Medium 1640 with L-glutamine, Invitrogen Corporation, Carlsbad, CA) was added to the blood in 90 µl aliquots for a total volume of 190 µl. Outside wells were filled with 200 µl of media. Blood was placed in a humidified 37°C incubator with 5% CO2 while compounds were prepared (nearly 60 minutes).
(§2) Compounds were prepared from 10 mM stock solutions in dimethylsulfoxide (DMSO, Sigma-Aldrich). […] Final DMSO and ethanol concentrations in the assay were 0.1 % and 1.5%. The samples were gently triturated twice to mix and replaced in the incubator. LPS stock (E. coli serotype 0111:B4, Sigma-Aldrich), stored in aliquots of 100 µg/ml in RPMI at -20°C, was diluted 1/50 in RPMI to make a working stock solution. After 60 minutes of incubation, 10 µl of the prepared LPS working stock was added to the blood to a final concentration of 100 ng/ml, omitting wells to be used as negative control. The samples were again gently triturated and the plates incubated overnight for 22 hours. Following incubation, the blood was centrifuged at 1500 x g for 5 minutes and the plasma removed to either freeze at -20°C or assay for cytokine release.
(§3) IL-1β, IFNγ,IL-6, and TNFα protein levels were measured using Meso Scale assay kits (Meso Scale Discovery, Gaithersburg, MD). Reagents were allowed to come to room temperature. Meso Scale plates were blocked with 30 µl of human plasma/serum assay diluent with gentle shaking for 60 minutes at room temperature. Plates were washed 3x with wash buffer (PBS, Invitrogen Corporation, with 0.05% Tween-20, Sigma-Aldrich). Calibrators for standard curves were prepared in human plasma/serum assay diluent as a 1/5 serial dilution to achieve final concentrations ranging from 50000 pg/ml to 3.2 pg/ml. Samples and calibrators were added at 20 µl/well, then incubated at room temperature with gentle shaking for 90 minutes. Plates were again washed 3 times with wash buffer. Detection antibody was diluted in human plasma/serum antibody diluent to 1 µg/ml and added to the plate at 20 µl/well. Plates were incubated as before for 60 minutes and washed again. Read Buffer T (4x) was diluted 1:1 with mqH2O to 2 times concentration and 150 µl added to each well. Plates were analyzed on the SECTOR Imager 6000 (Meso Scale Discovery) to generate raw signal values.
(§4) Individual values were compared to positive and negative controls (vehicle treated blood with LPS and vehicle treated blood without LPS, respectively) to generate % inhibition. Triplicate values were averaged for each donor. The values for two donors were averaged (only one donor was used for IL-1β) and graphed using 4-parameter fit curves in the GraFit 5.0.11 application.

IFNγ = assay: Ex vivo LPS-stimulated human whole blood, IFNγ production; type: cell-based; conditions: mean values
Experimental: as §1, §2, §3, §4

osteocalcin = assay: Serum osteocalcin suppression, 28-day repeat dose mouse model; conditions: in vivo
Experimental: (§5) The compounds were weighed and suspended in a vehicle of 0.5% methylcellulose/0.025% tween 20 (Sigma-Aldrich, St. Louis, MO). Compound suspensions were homogenized using a Polytron PT-3100 tissue homogenizer to create a very fine suspension and were then sonicated for 10 minutes using a water bath sonicator. Aliquots of each suspension were made for daily dosing at 0.2 ml/dose. Swiss Webster female mice, 10-12 weeks old, 28-29 grams, (Taconic, Germantown, NY) were used in accordance with the guidelines of the Institutional Animal Care and Use Committee and in accordance with NIH guidelines on laboratory animal welfare. Mice were acclimated in the Pfizer animal facility for three to seven days prior to being utilized in a study. […] Each treatment group contained 5-10 mice. To establish a dosing regimen for the studies, a pilot pharmacodynamic time course experiment was conducted to quantify TNFα repression after a single ED80 dose.
(§6) Body weights were measured on the first and last day of each experiment. Blood samples were obtained after three weeks of dosing for a steady-state pharmacokinetic (PK) analysis. To assess compound effects on LPS-induced TNFα, all mice received an intraperitoneal injection of LPS (Salmonella typhosa, L-7895; Sigma-Aldrich, St. Louis,) 2.5 hr after the last dose on day 28. Mice were sacrificed 90 minutes after LPS administration. Serum samples were quantified for osteocalcin and TNFα using the multiplex assays (Linco Research, Inc, St. Charles, MO; Luminex 100, Austin, TX). Samples were diluted 1:20 and the assay was run according to manufacturer's instructions. The osteocalcin standard was purchased separately (Biomedical Technologies Inc., Stoughton, MA). Mice were fasted for 4 hours before serum was collected for TNFα, and osteocalcin levels. For each experiment, outliers were detected by calculating the number of standard deviations from the mean of the group. If the value being examined was more than 2.5 standard deviations from the mean, it was excluded from the rest of the calculations.
(§7) The individual mouse percent inhibition values were fit to a four-parameter logistic model using the dose mean for each group.
(§8) ED50 and ED80 values were obtained for the various endpoints using a four-parameter logistic fit. For compounds which were tested multiple times, ED50 and ED80 values were obtained using four-parameter logistic fits of the combined data from multiple experiments.

[4] = as above; conditions: in vivo, po
Experimental: as §5, §6, §7, §8

## Cc1ncccc1NC(=O)c1ccc2c(c1)CC[C@@H]1C[C@@](O)(C(F)(F)F)CC[C@@]21Cc1ccccc1 [Example 1, (4βS,7R,8αR)-4β-benzyl-7-hydroxy-N-(2-methylpyridin-3-yl)-7-(trifluoromethyl)-4β,5,6,7,8,8α,9,10-octahydrophenanthrene-2-carboxamide]
[1]
  Disease incidence (traditional mCIA) EAUC50 (AUC 0-4 hr): 0.04 µg·h/mL
  Disease incidence (traditional mCIA) EAUC80 (AUC 0-4 hr): 0.10 µg·h/mL
[2]
  AUC(0-4 hr) values as share of the AUC(0-24 hr) values: more than 95%
[3]
  Tmax: 1.5 h
IL-1β; 0.457247 nM
  inhibition at 0.000457247 µM: 23.4%
IL-1β; 1.371742 nM
  inhibition at 0.00137174 µM: 22.4%
IL-1β; 4.115226 nM
  inhibition at 0.00411523 µM: 11.2%
IL-1β; 12.34568 nM
  inhibition at 0.0123457 µM: 21.5%
IL-1β; 37.03704 nM
  inhibition at 0.037037 µM: 38.2%
IL-1β; 111.1111 nM
  inhibition at 0.111111 µM: 39.7%
IL-1β; 333.3333 nM
  inhibition at 0.333333 µM: 57.8%
IL-1β; 1000 nM
  inhibition at 1 µM: 53.5%
IFNγ; 0.457247 nM
  inhibition at 0.000457247 µM: 16.9%
IFNγ; 1.371742 nM
  inhibition at 0.00137174 µM: 19.8%
IFNγ; 4.115226 nM
  inhibition at 0.00411523 µM: -3.18%
IFNγ; 12.34568 nM
  inhibition at 0.0123457 µM: 26.7%
IFNγ; 37.03704 nM
  inhibition at 0.037037 µM: 51%
IFNγ; 111.1111 nM
  inhibition at 0.111111 µM: 60.6%
IFNγ; 333.3333 nM
  inhibition at 0.333333 µM: 73.5%
IFNγ; 1000 nM
  inhibition at 1 µM: 78.7%
osteocalcin
  Serum osteocalcin EAUC50 (AUC 0-4 hr): 1300 ng·h/mL
  Serum osteocalcin EAUC80 (AUC 0-4 hr): 4200 ng·h/mL
osteocalcin; po
  Osteocalcin Suppression (ED80 dose): >10 mg/kg
[4]
  ED50: 2.91 mg/kg
